In ChEMBL document CHEMBL3774316, “Design, synthesis and anti-HIV-1 evaluation of hydrazide-based peptidomimetics as selective gelatinase inhibitors” (Bioorg Med Chem, 2016):

Target: T1, Aminopeptidase N (Sus scrofa, UniProt P15145)
T1 sequence (P15145 whole entry): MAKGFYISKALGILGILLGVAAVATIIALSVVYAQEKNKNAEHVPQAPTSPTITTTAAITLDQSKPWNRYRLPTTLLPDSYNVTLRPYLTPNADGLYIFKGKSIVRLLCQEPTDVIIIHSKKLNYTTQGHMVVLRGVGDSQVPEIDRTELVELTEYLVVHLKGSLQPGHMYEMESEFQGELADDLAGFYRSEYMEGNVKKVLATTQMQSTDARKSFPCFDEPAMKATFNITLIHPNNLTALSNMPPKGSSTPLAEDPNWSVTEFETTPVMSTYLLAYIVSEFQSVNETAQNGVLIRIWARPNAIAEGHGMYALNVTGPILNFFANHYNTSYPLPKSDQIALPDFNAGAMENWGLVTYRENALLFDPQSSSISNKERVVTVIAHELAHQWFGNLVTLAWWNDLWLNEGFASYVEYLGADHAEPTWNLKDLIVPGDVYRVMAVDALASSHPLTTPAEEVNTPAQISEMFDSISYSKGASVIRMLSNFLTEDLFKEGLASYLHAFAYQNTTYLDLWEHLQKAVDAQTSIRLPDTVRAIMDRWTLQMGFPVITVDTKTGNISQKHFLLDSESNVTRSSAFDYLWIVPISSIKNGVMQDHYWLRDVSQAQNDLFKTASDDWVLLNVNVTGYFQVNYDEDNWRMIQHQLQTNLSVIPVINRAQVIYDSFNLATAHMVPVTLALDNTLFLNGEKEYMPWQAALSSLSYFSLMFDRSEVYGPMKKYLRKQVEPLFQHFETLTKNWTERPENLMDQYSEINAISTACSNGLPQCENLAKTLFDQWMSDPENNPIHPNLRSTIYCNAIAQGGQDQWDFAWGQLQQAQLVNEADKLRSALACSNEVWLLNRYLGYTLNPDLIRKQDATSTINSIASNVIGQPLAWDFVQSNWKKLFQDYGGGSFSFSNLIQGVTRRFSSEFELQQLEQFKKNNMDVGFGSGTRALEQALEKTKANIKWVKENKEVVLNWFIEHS
Test: Inhibition of porcine microsomal aminopeptidase N preincubated for 30 mins using L-Leu-p-nitroanilide as substrate by UV-VIS spectrophotometer
Conditions: not given

Compound	IC50 [µM]
C/C(=N\NC(=O)Cn1c(=O)c(C)nc2ccccc21)c1cccc(Cl)c1	> 1000
COc1cc(/C=N/NC(=O)[C@@H]2CC3(CN2S(=O)(=O)c2ccc(C)cc2)SCCS3)cc(OC)c1OC	> 1000
COc1cc(/C=N/NC(=O)Cn2c(=O)c(C)nc3ccccc32)cc(OC)c1OC	57.6
COc1ccc(/C=C/C(=O)N2C[C@@H](NC(=O)c3cccnc3)C[C@H]2C(=O)NO)cc1OC	117

Second part, the molecule after the results:

IC50 [µM]	Compound
449	Cc1nc2ccccc2n(CC(=O)N/N=C/c2ccc(Cl)cc2)c1=O
> 1000	Cc1ccc(S(=O)(=O)N2CC3(C[C@H]2C(=O)N/N=C/c2cccc([N+](=O)[O-])c2)SCCS3)cc1

Test system: C8166
Test: Cytotoxicity against human C8166 cells after 72 hrs by MTT assay
Type: functional
Conditions: C8166, 72 h

Compound	CC50 [µM]
Cc1cn([C@H]2C[C@H](N=[N+]=[N-])[C@@H](CO)O2)c(=O)[nH]c1=O [ZIDOVUDINE]	4680
Cc1nc2ccccc2n(CC(=O)NNC(=O)c2ccccc2)c1=O	> 595
C/C(=N\NC(=O)Cn1c(=O)c(C)nc2ccccc21)c1cccc(Cl)c1	> 543
COc1cc(/C=N/NC(=O)[C@@H]2CC3(CN2S(=O)(=O)c2ccc(C)cc2)SCCS3)cc(OC)c1OC	327
COc1cc(/C=N/NC(=O)Cn2c(=O)c(C)nc3ccccc32)cc(OC)c1OC	> 488
COc1ccc(/C=C/C(=O)N2C[C@@H](NC(=O)c3cccnc3)C[C@H]2C(=O)NO)cc1OC	> 454
Cc1ccc(S(=O)(=O)N2CC3(C[C@H]2C(=O)N/N=C/c2cccc([N+](=O)[O-])c2)SCCS3)cc1	> 395
Cc1nc2ccccc2n(CC(=O)N/N=C/c2ccc(Cl)cc2)c1=O	> 565

Test system: Human immunodeficiency virus 1
Test: Antiviral activity against HIV1 3B infected in human C8166 cells assessed as cytopathic effect by counting the number of syncytia by microscopy
Type: functional, organism-based
Conditions: Human immunodeficiency virus 1, 3B

Compound	EC50 [µM]
Cc1nc2ccccc2n(CC(=O)NNC(=O)c2ccccc2)c1=O	273
C/C(=N\NC(=O)Cn1c(=O)c(C)nc2ccccc21)c1cccc(Cl)c1	> 543
COc1cc(/C=N/NC(=O)[C@@H]2CC3(CN2S(=O)(=O)c2ccc(C)cc2)SCCS3)cc(OC)c1OC	38.5
COc1cc(/C=N/NC(=O)Cn2c(=O)c(C)nc3ccccc32)cc(OC)c1OC	83
COc1ccc(/C=C/C(=O)N2C[C@@H](NC(=O)c3cccnc3)C[C@H]2C(=O)NO)cc1OC	33

Results, then the molecule that gave them:

EC50 [µM]	Compound
32.2	Cc1nc2ccccc2n(CC(=O)N/N=C/c2ccc(Cl)cc2)c1=O
16	Cc1ccc(S(=O)(=O)N2CC3(C[C@H]2C(=O)N/N=C/c2cccc([N+](=O)[O-])c2)SCCS3)cc1
0.00794	Cc1cn([C@H]2C[C@H](N=[N+]=[N-])[C@@H](CO)O2)c(=O)[nH]c1=O [ZIDOVUDINE]

Test system: Human immunodeficiency virus 1
Test: Antiviral activity against HIV1 A17 infected in human C8166 cells assessed as reduction in p24 antigen level incubated for 4 hrs followed by cell plating for 72 hrs by ELISA method
Type: functional, organism-based
Conditions: Human immunodeficiency virus 1, A17, C8166

EC50 [µM]	Compound
184	O=C1Nc2ccc(Cl)cc2[C@@](C#CC2CC2)(C(F)(F)F)O1 [EFAVIRENZ]
38.7	COc1cc(/C=N/NC(=O)[C@@H]2CC3(CN2S(=O)(=O)c2ccc(C)cc2)SCCS3)cc(OC)c1OC
9.94	Cc1ccc(S(=O)(=O)N2CC3(C[C@H]2C(=O)N/N=C/c2cccc([N+](=O)[O-])c2)SCCS3)cc1

Test system: Human immunodeficiency virus 1
Test: Antiviral activity against HIV1 74V infected in human C8166 cells assessed as reduction in p24 antigen level incubated for 4 hrs followed by cell plating for 72 hrs by ELISA method
Type: functional, organism-based
Conditions: Human immunodeficiency virus 1, 74V

EC50 [µM]	Compound
0.00152	Cc1cn([C@H]2C[C@H](N=[N+]=[N-])[C@@H](CO)O2)c(=O)[nH]c1=O [ZIDOVUDINE]
96	COc1cc(/C=N/NC(=O)[C@@H]2CC3(CN2S(=O)(=O)c2ccc(C)cc2)SCCS3)cc(OC)c1OC
5.07	Cc1ccc(S(=O)(=O)N2CC3(C[C@H]2C(=O)N/N=C/c2cccc([N+](=O)[O-])c2)SCCS3)cc1

Test system: not listed separately
Test: Therapeutic index, ratio of CC50 for human C8166 cells to EC50 for HIV1 3B infected in human C8166 cells
Type: cell-based
Conditions: read-out: Ratio CC50/EC50

Compound	selectivity ratio
Cc1cn([C@H]2C[C@H](N=[N+]=[N-])[C@@H](CO)O2)c(=O)[nH]c1=O [ZIDOVUDINE]	589000
COc1cc(/C=N/NC(=O)[C@@H]2CC3(CN2S(=O)(=O)c2ccc(C)cc2)SCCS3)cc(OC)c1OC	8.5
COc1cc(/C=N/NC(=O)Cn2c(=O)c(C)nc3ccccc32)cc(OC)c1OC	> 5.9
COc1ccc(/C=C/C(=O)N2C[C@@H](NC(=O)c3cccnc3)C[C@H]2C(=O)NO)cc1OC	> 13.8
Cc1ccc(S(=O)(=O)N2CC3(C[C@H]2C(=O)N/N=C/c2cccc([N+](=O)[O-])c2)SCCS3)cc1	> 24.6
Cc1nc2ccccc2n(CC(=O)N/N=C/c2ccc(Cl)cc2)c1=O	> 17.5

Test system: Human immunodeficiency virus 1
Test: Antiviral activity against HIV1 3B infected in human C8166 cells assessed as reduction in p24 antigen level incubated for 2 hrs followed by cell plating for 72 hrs by ELISA method
Type: functional, organism-based
Conditions: Human immunodeficiency virus 1, 3B

EC50 [µM]	Compound
0.00436	Cc1cn([C@H]2C[C@H](N=[N+]=[N-])[C@@H](CO)O2)c(=O)[nH]c1=O [ZIDOVUDINE]
65.1	COc1cc(/C=N/NC(=O)[C@@H]2CC3(CN2S(=O)(=O)c2ccc(C)cc2)SCCS3)cc(OC)c1OC
3.89	Cc1ccc(S(=O)(=O)N2CC3(C[C@H]2C(=O)N/N=C/c2cccc([N+](=O)[O-])c2)SCCS3)cc1

Target: 72 kDa type IV collagenase (Homo sapiens, UniProt P08253)
Sequence (P08253 whole entry): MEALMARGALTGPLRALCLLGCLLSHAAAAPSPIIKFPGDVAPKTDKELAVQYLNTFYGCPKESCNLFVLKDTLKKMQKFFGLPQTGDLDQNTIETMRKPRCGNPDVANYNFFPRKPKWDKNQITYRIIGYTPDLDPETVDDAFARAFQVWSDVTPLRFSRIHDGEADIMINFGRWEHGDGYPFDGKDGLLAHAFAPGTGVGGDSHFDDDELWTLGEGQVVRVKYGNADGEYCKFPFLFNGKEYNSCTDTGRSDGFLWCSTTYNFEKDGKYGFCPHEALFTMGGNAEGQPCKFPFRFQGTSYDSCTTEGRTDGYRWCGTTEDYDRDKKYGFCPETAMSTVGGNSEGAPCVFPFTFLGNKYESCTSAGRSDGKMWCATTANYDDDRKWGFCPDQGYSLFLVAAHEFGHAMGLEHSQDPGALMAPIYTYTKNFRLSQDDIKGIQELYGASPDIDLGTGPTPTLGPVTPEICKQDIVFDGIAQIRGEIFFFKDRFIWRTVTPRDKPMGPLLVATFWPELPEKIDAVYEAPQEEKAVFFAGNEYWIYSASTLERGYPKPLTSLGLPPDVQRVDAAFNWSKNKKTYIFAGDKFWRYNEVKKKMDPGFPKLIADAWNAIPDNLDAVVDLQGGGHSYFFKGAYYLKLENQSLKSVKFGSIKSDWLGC
Test: Inhibition of gelatinase A (unknown origin) after 30 mins using succinylated gelatin as substrate
Conditions: not given

Compound	IC50 [µM]
Cc1nc2ccccc2n(CC(=O)NNC(=O)c2ccccc2)c1=O	187
C/C(=N\NC(=O)Cn1c(=O)c(C)nc2ccccc21)c1cccc(Cl)c1	567
COc1cc(/C=N/NC(=O)[C@@H]2CC3(CN2S(=O)(=O)c2ccc(C)cc2)SCCS3)cc(OC)c1OC	210
COc1cc(/C=N/NC(=O)Cn2c(=O)c(C)nc3ccccc32)cc(OC)c1OC	223

Now from value to molecule:

IC50 [µM]	Compound
81	Cc1nc2ccccc2n(CC(=O)N/N=C/c2ccc(Cl)cc2)c1=O
1.05	Cc1ccc(S(=O)(=O)N2CC3(C[C@H]2C(=O)N/N=C/c2cccc([N+](=O)[O-])c2)SCCS3)cc1
